Measured values: the OligoGym collection
Bases are written 5' to 3'; sugars and linkages follow in the same order, as letters with counts (s phosphorothioate, o phosphodiester; PS: all linkages phosphorothioate). The collection does not say whether C is 5-methylated. l = locked nucleic acid (LNA); d = 2'-deoxy (DNA)

These sequences were tested against Tau (assay: rat primary cortical neurons, FLIPR, 25 uM ASO).

Sequence	calcium oscillation score
AATTCATAAATGACTATACT (sugars l3 d14 l3, PS)	40.3 % of control
AATTAAATTTCTCCCTG (sugars l4 d9 l4, PS)	34.1 % of control
TAATGAGCCACACTTGGAGG (sugars l3 d14 l3, PS)	0 % of control
GGTCAACTGGTTTGTA (sugars l3 d10 l3, PS)	55.6 % of control
CTACCCCATTTTTGACAT (sugars l3 d13 l2, PS)	48.7 % of control
TCAATTTGGAAAGATGAAAT (sugars l3 d14 l3, PS)	0 % of control
AAACTTTTACTCTGACT (sugars l4 d9 l4, PS)	59.4 % of control
CGACTTATCTATCCAT (sugars l4 d9 l3, PS)	46.2 % of control
CTTAATTTCACCCTCA (sugars l3 d10 l3, PS)	40.3 % of control
TTATTTCCAAATTCACTTTT (sugars lldldlddddddddddllll, PS)	88.8 % of control
TCTTGTGATGCAGGA (sugars l3 d9 l3, PS)	91.8 % of control
ACGCACCAGGAACCTTCCAG (sugars l3 d14 l3, PS)	36.7 % of control
ACCTTACCACTTTCAG (sugars l3 d10 l3, PS)	104 % of control
TTTATTTCCAAATTCACTTT (sugars l5 d11 l4, PS)	115 % of control
TCCTTGAAGTCAAGCTTCTC (sugars l3 d14 l3, PS)	49.8 % of control
TACTTTATTCCCTTAACAAT (sugars l2 d14 l4, PS)	91.3 % of control
ATGATTAATTACACCCC (sugars l3 d11 l3, PS)	8.2 % of control
GGAAAGATGAAATTTGCTCT (sugars l3 d14 l3, PS)	74.1 % of control
ACCAGTTACCATCATAC (sugars l4 d11 l2, PS)	93.2 % of control
CGAGTCTACCATGTCGATGC (sugars l3 d14 l3, PS)	78.5 % of control
ATCCAGCCATATTTCAACTC (sugars l3 d14 l3, PS)	28.2 % of control
CCTTAATTTCACCCT (sugars l3 d9 l3, PS)	140 % of control
CAATTAACCGAACTGC (sugars l3 d10 l3, PS)	89.7 % of control
CAGCCTACTTTATTCCC (sugars l2 d13 l2, PS)	79.2 % of control
TAGCCCACCCATCAATTTGG (sugars l3 d14 l3, PS)	7.77 % of control
CATCGCTTCCAGTC (sugars l3 d8 l3, PS)	116 % of control

Sequence	calcium oscillation score
ATTTCCAAATTCACTTTTAC (sugars lldlldddddddddldldll, PS)	83 % of control
CCATTTTTATCATCACCT (sugars l3 d13 l2, PS)	63.8 % of control
TCCTAAGTCAACCACAC (sugars l4 d11 l2, PS)	56.6 % of control
AATCCATTTATATTCTTTTA (sugars l4 d12 l4, PS)	38.5 % of control
CTCCCATCACTAGCACT (sugars l1 d14 l2, PS)	38.3 % of control
CTTTAATTTAATCACTC (sugars l4 d9 l4, PS)	17.3 % of control
CATCAGTCTTATCTCCC (sugars l2 d13 l2, PS)	54.7 % of control
TAATTATTAAATCTTCTCTT (sugars l4 d12 l4, PS)	60.1 % of control
GCCATATTTCAACTCTT (sugars l2 d11 l4, PS)	57.7 % of control
CATCTCTCTAGACATCT (sugars l4 d11 l2, PS)	79.4 % of control
CAGGGAGGCAGACACCTCGT (sugars l3 d14 l3, PS)	50.9 % of control
ATCCTGGTGGCGTTGGCCTG (sugars l3 d14 l3, PS)	0 % of control
CTCAGCTCTTCCATAAGCAG (sugars l3 d14 l3, PS)	40.3 % of control
CGCGGAAGGTCAGCTT (sugars l3 d10 l3, PS)	33.3 % of control
ACCAATTATCTTTAAATTCT (sugars l4 d13 l3, PS)	77 % of control
TTTTTCTTGTTCTAACCC (sugars l4 d12 l2, PS)	56.1 % of control
TTATTTCCAAATTCACTTTT (sugars llldldddddddddllddll, PS)	110 % of control
TCCAATACTAGATCTA (sugars l4 d9 l3, PS)	71.9 % of control
TTCCTGCAAATTCTCAA (sugars l4 d10 l3, PS)	61.7 % of control
ATAGCAAACAGGATAC (sugars l3 d10 l3, PS)	27.6 % of control
TGGAAAGATGAAATTTGCTC (sugars l3 d14 l3, PS)	5.81 % of control
TCCTCCATTGTAACTAC (sugars l2 d11 l4, PS)	63.9 % of control
CATTTTCTGACTCTAAT (sugars l4 d9 l4, PS)	57.8 % of control
AGTGACAGAAGAGACG (sugars l3 d10 l3, PS)	9.04 % of control
GCTGAGGTGCTCTGGT (sugars l3 d10 l3, PS)	19.2 % of control
TTCTAATTTAGTCACCA (sugars l3 d10 l4, PS)	65.9 % of control

Sequence	calcium oscillation score
TACATGCGTCCTTT (sugars l3 d8 l3, PS)	91.8 % of control
ACCCTTAGACATAACAC (sugars l3 d10 l4, PS)	59.7 % of control
ACTCAAATCAATTCTCATTT (sugars l4 d12 l4, PS)	70.1 % of control
TACTATCCACTTGTTA (sugars l3 d11 l2, PS)	61.9 % of control
TTGGCTTTGGCGTT (sugars l3 d8 l3, PS)	96.2 % of control
TTTCTCAATGTAACCTC (sugars l3 d10 l4, PS)	71.6 % of control
GTCATCGCTTCCAGTC (sugars l3 d10 l3, PS)	85.7 % of control
CTGGACGTTGCTAAGA (sugars l3 d10 l3, PS)	0 % of control
CCACTGGCGACTTGTACACG (sugars l3 d14 l3, PS)	16.8 % of control
GGGCGAGTCTACCATGTCGA (sugars l3 d14 l3, PS)	66 % of control
CCATTTTCCATATAATTTT (sugars l3 d12 l4, PS)	79.3 % of control
GCAAACAGGATACAGT (sugars l3 d10 l3, PS)	0 % of control
CATCTAAACACCTCAATCCA (sugars l2 d16 l2, PS)	72.6 % of control
TCCAAAACATTCTCACCAAA (sugars l4 d14 l2, PS)	85.7 % of control
CCAATACTAGATCTAT (sugars l4 d8 l4, PS)	64.7 % of control
TTTGAAGTCCCGAGCC (sugars l3 d10 l3, PS)	22.4 % of control
CGTCAGCTAGCGTGGC (sugars l3 d10 l3, PS)	117 % of control
CCTGGTTTATGATGGA (sugars l3 d10 l3, PS)	26.1 % of control
TCAGGTCTGGCATGG (sugars l3 d9 l3, PS)	0 % of control
TCCTAATCCTGTGC (sugars l3 d8 l3, PS)	65 % of control
TGTCCAAACTTTTACTC (sugars l4 d10 l3, PS)	65.3 % of control
TTCCCACAATTCCTACA (sugars l3 d12 l2, PS)	73.4 % of control
GACTTGTACACGATCTCCGC (sugars l3 d14 l3, PS)	66.8 % of control
CCGAACTGCGAGGAGCAGCT (sugars l3 d14 l3, PS)	38.9 % of control
ACTCTTTGAACACCCCA (sugars l2 d12 l3, PS)	88.9 % of control
CAGTCTTTATTAACAC (sugars l4 d8 l4, PS)	54 % of control
